Measurements published in ChEMBL document CHEMBL1201862, “PubChem BioAssay data set” (2004).
Calls of active or inactive are those of the source.

What was measured:
[1] = NIH-3T3 fibroblast cytotoxicity, dose response, cytotoxicity control, cell-based, fluorescence, Alamar Blue, secondary assay (AID 2327); assay type: functional;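 further: NIH-3T3 mouse fibroblasts cultured with fluconazole at 8 µg/mL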
[2] = fluconazole-exposed Candida albicans growth modulators – fluorescence, retest, confirmation (AID 2467); assay type: functional, cell-based
[3] = target: Multidrug resistance protein CDR2 (Candida albicans (strain SC5314 / ATCC MYA-2876) (Yeast), UniProt P78595); assay: inhibition of Nile Red efflux via Candida CDR2 – S. cerevisiae AD1-8u, singleplex, Cherry Pick1 hits, dose response (AID 588604); assay type: functional
Chain of Multidrug resistance protein CDR2 (P78595 whole entry): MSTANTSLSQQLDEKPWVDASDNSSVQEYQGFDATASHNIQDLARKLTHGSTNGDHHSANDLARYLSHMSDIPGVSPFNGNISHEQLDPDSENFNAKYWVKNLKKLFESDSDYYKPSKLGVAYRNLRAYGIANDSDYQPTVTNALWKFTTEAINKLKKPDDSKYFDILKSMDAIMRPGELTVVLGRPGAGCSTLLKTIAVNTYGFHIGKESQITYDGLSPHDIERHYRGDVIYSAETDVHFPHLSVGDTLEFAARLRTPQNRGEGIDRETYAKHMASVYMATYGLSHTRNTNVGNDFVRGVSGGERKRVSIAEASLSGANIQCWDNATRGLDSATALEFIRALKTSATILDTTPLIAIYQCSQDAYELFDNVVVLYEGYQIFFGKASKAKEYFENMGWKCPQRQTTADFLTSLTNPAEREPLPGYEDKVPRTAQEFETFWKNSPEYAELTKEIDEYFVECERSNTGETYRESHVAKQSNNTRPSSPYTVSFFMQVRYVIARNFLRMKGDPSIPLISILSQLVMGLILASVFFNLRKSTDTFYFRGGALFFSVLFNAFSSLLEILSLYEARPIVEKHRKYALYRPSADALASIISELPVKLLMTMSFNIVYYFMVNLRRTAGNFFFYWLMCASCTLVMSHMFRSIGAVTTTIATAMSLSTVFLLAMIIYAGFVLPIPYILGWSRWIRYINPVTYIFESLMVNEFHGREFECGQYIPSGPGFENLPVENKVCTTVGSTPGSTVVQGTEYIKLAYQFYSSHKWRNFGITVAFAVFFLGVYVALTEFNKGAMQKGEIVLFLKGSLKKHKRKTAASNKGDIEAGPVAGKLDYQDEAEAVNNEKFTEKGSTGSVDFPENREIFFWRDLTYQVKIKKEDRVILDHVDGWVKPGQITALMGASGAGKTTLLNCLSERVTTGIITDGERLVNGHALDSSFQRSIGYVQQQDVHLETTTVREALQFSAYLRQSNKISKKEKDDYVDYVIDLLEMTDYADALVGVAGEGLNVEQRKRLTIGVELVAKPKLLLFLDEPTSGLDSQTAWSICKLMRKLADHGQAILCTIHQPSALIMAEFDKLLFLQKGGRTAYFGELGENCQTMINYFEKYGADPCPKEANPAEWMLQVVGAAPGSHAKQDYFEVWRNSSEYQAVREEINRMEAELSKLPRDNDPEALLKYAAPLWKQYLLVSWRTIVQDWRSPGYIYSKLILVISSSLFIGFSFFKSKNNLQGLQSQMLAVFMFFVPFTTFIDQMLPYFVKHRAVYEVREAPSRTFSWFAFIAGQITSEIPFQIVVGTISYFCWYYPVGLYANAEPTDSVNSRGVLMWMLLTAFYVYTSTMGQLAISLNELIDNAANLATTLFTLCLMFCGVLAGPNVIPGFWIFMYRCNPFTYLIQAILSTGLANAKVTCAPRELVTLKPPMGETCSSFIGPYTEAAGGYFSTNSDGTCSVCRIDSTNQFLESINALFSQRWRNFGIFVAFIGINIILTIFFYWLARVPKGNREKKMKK

[4] = target: T1, DNA repair protein RAD52 homolog (Homo sapiens, UniProt P43351); assay type: functional, biochemical
T1 sequence (P43351 whole entry): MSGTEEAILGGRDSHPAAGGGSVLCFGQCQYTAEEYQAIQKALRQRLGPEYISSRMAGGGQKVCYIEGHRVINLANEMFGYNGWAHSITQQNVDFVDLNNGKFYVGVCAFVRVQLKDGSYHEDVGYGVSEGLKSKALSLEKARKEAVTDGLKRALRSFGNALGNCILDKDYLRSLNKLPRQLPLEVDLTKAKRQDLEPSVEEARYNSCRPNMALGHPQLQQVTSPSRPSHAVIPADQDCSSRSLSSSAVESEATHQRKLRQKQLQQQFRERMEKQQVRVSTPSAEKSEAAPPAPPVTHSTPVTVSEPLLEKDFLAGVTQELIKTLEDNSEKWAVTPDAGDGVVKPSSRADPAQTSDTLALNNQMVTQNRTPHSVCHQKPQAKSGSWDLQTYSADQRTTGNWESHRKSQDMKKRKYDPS

[5] = target: T2, High affinity choline transporter 1 (Homo sapiens, UniProt Q9GZV3); assay: human choline transporter blockers, potency – cell-based, 5-point CRC, membrane potential dye, dose response (AID 504840); assay type: functional
T2 sequence (Q9GZV3 whole entry): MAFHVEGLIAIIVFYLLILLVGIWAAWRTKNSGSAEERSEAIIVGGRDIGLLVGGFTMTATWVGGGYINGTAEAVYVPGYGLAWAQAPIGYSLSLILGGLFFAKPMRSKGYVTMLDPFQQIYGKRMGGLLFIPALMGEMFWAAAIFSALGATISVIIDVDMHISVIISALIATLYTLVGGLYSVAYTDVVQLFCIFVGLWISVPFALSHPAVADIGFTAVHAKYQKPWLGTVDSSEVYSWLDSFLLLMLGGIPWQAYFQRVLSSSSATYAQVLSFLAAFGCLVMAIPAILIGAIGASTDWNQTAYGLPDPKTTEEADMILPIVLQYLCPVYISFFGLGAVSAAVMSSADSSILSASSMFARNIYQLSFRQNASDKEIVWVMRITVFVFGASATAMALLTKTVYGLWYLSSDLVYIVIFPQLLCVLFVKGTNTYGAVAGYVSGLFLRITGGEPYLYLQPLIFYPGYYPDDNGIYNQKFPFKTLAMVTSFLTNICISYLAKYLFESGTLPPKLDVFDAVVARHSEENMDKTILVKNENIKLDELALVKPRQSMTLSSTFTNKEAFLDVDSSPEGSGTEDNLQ

[6] = target: T2, High affinity choline transporter 1; assay: human choline transporter blockers, potency – cell-based, 10-point CRC, membrane potential dye, dose response (AID 588401); assay type: functional;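 further: membrane potential dye fluorescence of choline-evoked depolarization via CHT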
[7] = target: T3, Neuropeptides B/W receptor type 1 (Homo sapiens, UniProt P48145); assay: human NPBW1 receptor blockade, IC50 – cell-based, fluorescence, dose response, set 5, late-stage follow-up (AID 588566); assay type: functional
T3 sequence (P48145 whole entry): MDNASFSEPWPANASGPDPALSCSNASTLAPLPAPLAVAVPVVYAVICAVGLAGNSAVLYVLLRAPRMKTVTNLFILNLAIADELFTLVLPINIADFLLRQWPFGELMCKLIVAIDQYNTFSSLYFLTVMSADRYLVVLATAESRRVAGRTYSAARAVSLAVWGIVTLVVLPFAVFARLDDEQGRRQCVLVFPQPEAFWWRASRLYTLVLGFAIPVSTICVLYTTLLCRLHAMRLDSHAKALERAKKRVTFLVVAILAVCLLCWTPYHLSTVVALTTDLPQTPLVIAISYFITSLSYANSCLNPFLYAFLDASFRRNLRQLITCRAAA

[8] = target: Melanin-concentrating hormone receptor 1 (Homo sapiens, UniProt Q99705); assay: Late-stage fluorescence-based counterscreen for antagonists of the G-protein coupled receptor 7 (GPR7): cell-based dose response assay to identify antagonists of the melanin-concentrating hormone receptor 1 (MCHR1) Set 5.; assay type: functional
Chain of Melanin-concentrating hormone receptor 1 (Q99705 whole entry): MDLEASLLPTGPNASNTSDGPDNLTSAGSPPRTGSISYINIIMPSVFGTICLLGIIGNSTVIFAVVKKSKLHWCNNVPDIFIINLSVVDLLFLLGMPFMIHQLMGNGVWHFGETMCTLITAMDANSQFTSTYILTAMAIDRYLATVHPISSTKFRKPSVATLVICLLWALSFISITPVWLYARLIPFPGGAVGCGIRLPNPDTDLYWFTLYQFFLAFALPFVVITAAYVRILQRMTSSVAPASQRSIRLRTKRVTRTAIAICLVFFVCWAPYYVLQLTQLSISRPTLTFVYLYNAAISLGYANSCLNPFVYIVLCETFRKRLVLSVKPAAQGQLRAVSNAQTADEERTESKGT

Cc1c(CCOC(=O)CC23CC4CC(CC(C)(C4)C2)C3)sc[n+]1Cc1ccc([N+](=O)[O-])cc1
EC50 [1]: > 150 µM (inactive)
EC50 [2]: > 38 µM (not active)
EC50 [3]: 10.9 µM (active)
AC50 [4]: 15.6 µM (active)

COc1ccc(C(=O)NCCCSC)cc1OC1CCN(C(C)C)CC1
IC50 [5]: 8.13 µM (active)
IC50 [6]: 4.74 µM (active)

CCOC(=O)C(C(N)=O)c1c(Cl)cnn(Cc2cccc3ccccc23)c1=O (stereo not drawn)
IC50 [7]: 11.8 µM (inactive)
IC50 [8]: > 20 µM (inactive)
